In article PMC3624020 (Nature communications, 2011):

Key:
[1] = test system: sigma-2 receptors in hepatic membrane homogenates; test: blocking of WC-21 photoaffinity labeling of the ~24 kD protein band; assay type: binding; conditions: rat liver membrane homogenates, photo cross-linked with WC-21, western blot
[2] = test system: PGRMC1 in A549 lung cancer cells; conditions: ref [33], [37]; cited from earlier work

SMILES	blocking of WC-21 labeling of the ~24 kD protein band [1]	upregulation of PGRMC1 [2]
COc1cc2c(cc1OC)CN(CCCCNC(=O)c1cc(C)ccc1OC)CC2 [RHM-1, N-[4-(3,4-dihydro-6,7-dimethoxyisoquinolin-2(1H)-yl)butyl]-2-methoxy-5-methylbenzamide]	blocked	
Cc1ccc2c(c1)[C@H]1CN(C)CC[C@H]1N2C(=O)CSc1nnnn1-c1ccc(Cl)cc1 [AG-205]		induced an upregulation
Cc1ccccc1N=C(N)Nc1ccccc1C [DTG]	blocked	
